What all share (type): biochemical
Experiment [1] has as its target ABL (Homo sapiens, UniProt P00519). The experiment can be described thus: Kinase profiling ABL. The conditions noted are these: 100 micromolar inhibitor concentration; 100 is no change; read-out: residual kinase activity, ABL. The text has this:
(§1) Any value less that 25 is considered to be highly significant inhibition.

Experiment [2] has as its target BRK (Homo sapiens, UniProt Q13882). Put plainly: Kinase profiling BRK. The conditions noted are these: 100 micromolar inhibitor concentration; 100 is no change; read-out: residual kinase activity, BRK.
Excerpt: as §1

Experiment [3] deals with MARK2 (Homo sapiens, UniProt Q7KZI7). Put plainly: Kinase profiling MARK2. Particulars: 100 micromolar inhibitor concentration; 100 is no change; read-out: residual kinase activity, MARK2.
Excerpt: as §1

Experiment [4] deals with MELK (Homo sapiens, UniProt Q14680). The experiment can be described thus: Kinase profiling MELK. The conditions noted are these: 100 micromolar inhibitor concentration; 100 is no change; read-out: residual kinase activity, MELK.
Excerpt: as §1

The target of experiment [5] is DYRK1A (Homo sapiens, UniProt Q13627). Put plainly: Determination of IC50 values against DYRK1a. Particulars: average of duplicate; 10 concentrations 100 μM to 0.003 μM; read-out: IC 50 against DYRK1a. On the procedure:
The kinase assay was carried out using Multidrop 384's at room temperature in a total assay volume of 25.5 μl. To plates containing 0.5 μl of compounds, DMSO controls or acid blanks, 15 μl of an enzyme mix containing the DYRK1a enzyme and peptide/protein substrate in buffer was added. Compounds were pre-incubated in the presence of the enzyme and peptide/protein substrate for 5 minutes before initiation of the reaction by addition of 10 μl of ATP (final concentration selected for each kinase at 5, 20 or 50 μM). Assays were carried out for 30 minutes at room temperature before termination by the addition of 5 μl orthophosphoric acid. The assay plates were then harvested onto P81 Unifilter Plates by a Packard Harvester (wash buffer is 50 mM orthophosphoric acid) and dried in air. The dry Unifilter plates were then sealed by the addition of MicroScint O and counted in Packard Topcount NXT scintillation counters.

The target of experiment [6] is T1, TGFBR1 (Homo sapiens, UniProt P36897).
T1 sequence (P36897 34-503): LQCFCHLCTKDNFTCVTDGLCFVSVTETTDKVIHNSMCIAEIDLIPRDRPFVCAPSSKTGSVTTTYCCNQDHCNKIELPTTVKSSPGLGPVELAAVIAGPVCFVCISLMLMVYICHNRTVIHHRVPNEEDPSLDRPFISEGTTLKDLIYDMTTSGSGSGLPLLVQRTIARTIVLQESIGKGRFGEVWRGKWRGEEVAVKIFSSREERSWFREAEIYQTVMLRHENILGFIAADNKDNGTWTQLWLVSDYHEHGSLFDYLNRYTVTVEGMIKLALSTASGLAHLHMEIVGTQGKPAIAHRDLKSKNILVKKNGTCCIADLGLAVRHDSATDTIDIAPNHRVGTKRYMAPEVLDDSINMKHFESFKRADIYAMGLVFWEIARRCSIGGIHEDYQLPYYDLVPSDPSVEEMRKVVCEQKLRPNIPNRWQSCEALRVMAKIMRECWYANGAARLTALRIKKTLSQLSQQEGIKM
Put plainly: Kinase profiling TGFBR1. The conditions noted are these: 100 micromolar inhibitor concentration; 100 is no change; read-out: residual kinase activity, TGFBR1.
Excerpt: as §1

Experiment [7] has as its target MNK1 (Homo sapiens, UniProt Q9BUB5). The experiment can be described thus: Kinase profiling MNK1. Particulars: 100 micromolar inhibitor concentration; 100 is no change; read-out: residual kinase activity, MNK1.
Excerpt: as §1

In experiment [8] the target is MAPKAP-K2 (Homo sapiens, UniProt P49137). Put plainly: Kinase profiling MAPKAP-K2. Particulars: 100 micromolar inhibitor concentration; 100 is no change; read-out: residual kinase activity, MAPKAP-K2.
Excerpt: as §1

The record followed here is patent US10231954B2, “Neurodegenerative therapies” (LYTIX BIOPHARMA AS, priority 2014, dated 2019).

Sequence of BRK (Q13882 whole entry, species assumed): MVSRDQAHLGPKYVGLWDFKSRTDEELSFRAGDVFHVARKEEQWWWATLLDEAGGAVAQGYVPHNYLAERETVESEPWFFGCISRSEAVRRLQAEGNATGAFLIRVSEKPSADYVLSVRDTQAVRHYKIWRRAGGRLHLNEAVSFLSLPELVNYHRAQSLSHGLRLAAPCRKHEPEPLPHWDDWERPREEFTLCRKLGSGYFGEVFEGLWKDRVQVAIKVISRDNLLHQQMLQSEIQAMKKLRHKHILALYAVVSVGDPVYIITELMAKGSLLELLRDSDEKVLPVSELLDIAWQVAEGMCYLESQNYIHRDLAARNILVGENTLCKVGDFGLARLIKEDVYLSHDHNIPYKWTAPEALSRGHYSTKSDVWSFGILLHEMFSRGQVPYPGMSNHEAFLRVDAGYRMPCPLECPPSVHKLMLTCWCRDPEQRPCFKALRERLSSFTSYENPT
Sequence of MELK (Q14680 whole entry, species assumed): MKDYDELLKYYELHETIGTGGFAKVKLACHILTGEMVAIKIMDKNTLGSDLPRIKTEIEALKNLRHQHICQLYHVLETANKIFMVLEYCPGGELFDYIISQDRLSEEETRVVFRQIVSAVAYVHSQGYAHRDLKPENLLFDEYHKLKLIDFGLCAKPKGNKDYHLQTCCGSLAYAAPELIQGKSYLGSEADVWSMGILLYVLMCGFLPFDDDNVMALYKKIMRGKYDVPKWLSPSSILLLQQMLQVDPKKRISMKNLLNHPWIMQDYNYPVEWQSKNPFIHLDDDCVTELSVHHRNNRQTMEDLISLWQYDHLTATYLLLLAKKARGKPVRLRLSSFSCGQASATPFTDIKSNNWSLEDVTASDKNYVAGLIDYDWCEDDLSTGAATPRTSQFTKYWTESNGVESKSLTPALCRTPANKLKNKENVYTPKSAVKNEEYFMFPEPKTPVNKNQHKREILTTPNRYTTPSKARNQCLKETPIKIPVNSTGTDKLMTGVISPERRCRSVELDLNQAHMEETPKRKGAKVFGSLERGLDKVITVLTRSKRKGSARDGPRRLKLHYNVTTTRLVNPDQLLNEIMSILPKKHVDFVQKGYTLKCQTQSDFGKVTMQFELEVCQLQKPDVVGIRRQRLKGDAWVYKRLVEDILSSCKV
Sequence of MARK2 (Q7KZI7 whole entry, species assumed): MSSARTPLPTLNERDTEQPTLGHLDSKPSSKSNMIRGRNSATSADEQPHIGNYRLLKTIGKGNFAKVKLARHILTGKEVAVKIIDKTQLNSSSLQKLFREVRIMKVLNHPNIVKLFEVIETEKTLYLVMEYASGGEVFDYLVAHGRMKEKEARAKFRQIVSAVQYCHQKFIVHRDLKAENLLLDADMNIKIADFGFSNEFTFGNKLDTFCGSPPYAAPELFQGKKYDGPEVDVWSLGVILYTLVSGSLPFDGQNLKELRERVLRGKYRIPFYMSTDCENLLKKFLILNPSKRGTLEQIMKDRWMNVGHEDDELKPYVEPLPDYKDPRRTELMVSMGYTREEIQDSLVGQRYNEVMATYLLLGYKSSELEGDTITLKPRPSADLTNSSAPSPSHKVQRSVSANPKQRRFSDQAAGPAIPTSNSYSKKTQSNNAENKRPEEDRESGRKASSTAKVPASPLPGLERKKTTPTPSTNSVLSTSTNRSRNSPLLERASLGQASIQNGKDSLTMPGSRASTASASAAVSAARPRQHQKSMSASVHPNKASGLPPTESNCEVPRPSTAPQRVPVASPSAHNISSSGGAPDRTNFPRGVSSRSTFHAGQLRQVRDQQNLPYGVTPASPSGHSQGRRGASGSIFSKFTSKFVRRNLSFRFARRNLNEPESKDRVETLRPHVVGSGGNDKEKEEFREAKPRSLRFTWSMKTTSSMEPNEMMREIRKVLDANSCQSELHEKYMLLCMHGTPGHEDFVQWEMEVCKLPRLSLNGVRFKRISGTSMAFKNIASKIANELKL
Sequence of MAPKAP-K2 (P49137 whole entry, species assumed): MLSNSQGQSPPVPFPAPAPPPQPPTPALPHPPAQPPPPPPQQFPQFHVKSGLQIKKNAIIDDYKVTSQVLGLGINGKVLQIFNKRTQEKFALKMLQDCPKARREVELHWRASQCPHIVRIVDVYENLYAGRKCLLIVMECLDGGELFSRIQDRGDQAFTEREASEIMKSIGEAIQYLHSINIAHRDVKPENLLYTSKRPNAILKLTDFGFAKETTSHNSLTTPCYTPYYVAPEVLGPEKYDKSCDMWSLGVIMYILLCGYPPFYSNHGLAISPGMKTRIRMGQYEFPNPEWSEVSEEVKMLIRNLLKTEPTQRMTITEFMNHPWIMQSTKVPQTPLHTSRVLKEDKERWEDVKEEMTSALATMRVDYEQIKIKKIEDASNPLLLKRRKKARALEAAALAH
Sequence of ABL (P00519 whole entry, species assumed): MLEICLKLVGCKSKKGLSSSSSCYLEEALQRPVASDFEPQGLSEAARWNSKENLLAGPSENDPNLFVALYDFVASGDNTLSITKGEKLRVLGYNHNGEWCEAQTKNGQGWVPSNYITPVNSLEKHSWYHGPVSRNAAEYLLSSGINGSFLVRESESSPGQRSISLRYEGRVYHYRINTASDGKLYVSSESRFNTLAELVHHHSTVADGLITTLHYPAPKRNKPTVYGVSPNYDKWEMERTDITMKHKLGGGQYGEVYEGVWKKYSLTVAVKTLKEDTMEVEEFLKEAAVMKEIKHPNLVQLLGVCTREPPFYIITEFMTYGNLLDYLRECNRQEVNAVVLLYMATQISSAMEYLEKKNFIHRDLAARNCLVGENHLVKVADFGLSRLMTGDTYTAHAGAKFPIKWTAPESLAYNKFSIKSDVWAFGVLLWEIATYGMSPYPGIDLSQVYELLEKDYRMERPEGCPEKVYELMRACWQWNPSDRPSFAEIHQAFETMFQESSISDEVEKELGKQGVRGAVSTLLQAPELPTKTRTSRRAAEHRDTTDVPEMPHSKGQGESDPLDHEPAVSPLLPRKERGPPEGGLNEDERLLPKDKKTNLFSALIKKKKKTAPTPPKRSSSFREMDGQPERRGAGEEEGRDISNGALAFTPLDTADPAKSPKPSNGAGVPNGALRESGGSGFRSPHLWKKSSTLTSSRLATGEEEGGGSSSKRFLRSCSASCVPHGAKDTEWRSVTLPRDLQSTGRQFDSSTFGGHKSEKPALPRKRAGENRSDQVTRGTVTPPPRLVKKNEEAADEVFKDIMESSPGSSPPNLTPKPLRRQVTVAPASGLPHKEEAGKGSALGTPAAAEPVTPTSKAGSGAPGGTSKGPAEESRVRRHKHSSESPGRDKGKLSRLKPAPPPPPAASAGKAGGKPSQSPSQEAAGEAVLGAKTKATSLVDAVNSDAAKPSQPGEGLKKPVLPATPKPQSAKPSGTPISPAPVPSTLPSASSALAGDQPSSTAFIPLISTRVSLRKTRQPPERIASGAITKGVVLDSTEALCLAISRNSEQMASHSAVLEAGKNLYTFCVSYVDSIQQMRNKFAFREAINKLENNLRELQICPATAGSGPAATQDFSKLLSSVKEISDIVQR
Sequence of MNK1 (Q9BUB5 whole entry, species assumed): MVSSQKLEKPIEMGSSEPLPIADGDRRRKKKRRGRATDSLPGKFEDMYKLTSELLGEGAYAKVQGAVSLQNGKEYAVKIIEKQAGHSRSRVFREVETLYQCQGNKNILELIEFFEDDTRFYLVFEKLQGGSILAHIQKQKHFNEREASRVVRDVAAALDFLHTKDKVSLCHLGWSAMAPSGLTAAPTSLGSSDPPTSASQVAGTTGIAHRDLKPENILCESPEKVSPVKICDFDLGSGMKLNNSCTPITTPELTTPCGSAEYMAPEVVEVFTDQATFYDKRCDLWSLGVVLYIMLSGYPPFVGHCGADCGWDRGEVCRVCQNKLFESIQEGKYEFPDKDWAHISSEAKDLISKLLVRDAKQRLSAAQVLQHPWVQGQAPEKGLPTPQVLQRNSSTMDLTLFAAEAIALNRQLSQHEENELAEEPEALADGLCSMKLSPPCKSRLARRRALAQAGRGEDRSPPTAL

As for `CC(=O)Nc1nc2cc(F)ccc2s1` [Compound 03-77], the remaining activity at 100 µM was found to be 86% in experiment [1]; 91% in experiment [2]; 79% in experiment [3]; 67% in experiment [4]; 96% in experiment [6]; 64% in experiment [7]. The remaining activity at 100 µM in experiment [8] was 106%. Besides, in experiment [5], the IC50 came out at 3.9 µM.
